Test results reported in patent US9718790B2, “Triazine derivative and pharmaceutical composition having an analgesic activity comprising the same” (SHIONOGI & CO., LTD., priority 2010, dated 2017).

Target: human P2X3 receptor (Homo sapiens (Human), UniProt P56373)
Test: Evaluation of human P2X3 receptor inhibitory activity (Fluo-3 calcium fluorescence, FDSS 3000, ATP stimulation);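 further: stimulus was 50 nM ATP with fluorescence followed for 3 min, and the response per well was peak post-ATP fluorescence divided by the reading at measurement start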
Type: cell-based
[1] = human P2X3 receptor, Test Example 1
[2] = C6BU-1 cells stably expressing human P2X3 receptor, Fluo-3 fluorescence, FDSS 3000
[3] = C6BU-1 cells stably expressing human P2X3 receptor

human P2X3 receptor, sequence (P56373 whole entry): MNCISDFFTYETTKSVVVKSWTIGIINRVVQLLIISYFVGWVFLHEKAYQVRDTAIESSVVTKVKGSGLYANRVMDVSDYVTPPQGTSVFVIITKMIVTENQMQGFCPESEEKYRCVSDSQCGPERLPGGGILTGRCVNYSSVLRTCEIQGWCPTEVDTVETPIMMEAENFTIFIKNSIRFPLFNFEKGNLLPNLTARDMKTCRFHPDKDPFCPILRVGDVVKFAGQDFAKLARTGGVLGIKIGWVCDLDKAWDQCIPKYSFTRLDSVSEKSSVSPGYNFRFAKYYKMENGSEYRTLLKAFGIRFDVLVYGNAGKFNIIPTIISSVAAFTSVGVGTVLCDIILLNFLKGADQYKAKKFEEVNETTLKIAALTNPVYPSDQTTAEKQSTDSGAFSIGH

Compound	IC50 [3] [µM]	further results
Cc1cc(/N=c2\[nH]c(=O)n(C[C@H](O)C(=O)O)c(=O)n2Cc2ccc(Cl)cc2)ccc1OC(C)C [Compound I-0852, (S)-1-(4-chlorobenzyl)-6-(3-mehyl-4-isopropoxyphenylimino)-3-(2-hydroxycarbonyl-2-hydroxyethyl)-1,3,5-triazinane-2,4-dion]		IC50 [1]: 0.038 µM
Cc1cncc(Oc2ccc(/N=c3\[nH]c(=O)n(CC(CO)CO)c(=O)n3Cc3ccc(Cl)cc3)cc2)n1 [Compound I-2709]		IC50 [1]: 0.006 µM
CCc1nc2ccc(/N=c3\[nH]c(=O)n(CC4(C(=O)O)CC4)c(=O)n3Cc3ccc(C)cc3)cc2s1 [Compound I-1556]		IC50 [2]: 0.011 µM
CNC(=O)CCn1c(=O)[nH]/c(=N\c2ccc(OC3CCC3)cc2)n(Cc2ccc(Cl)cc2)c1=O [Compound I-1913]	0.019	
CC(C)Oc1ccc(/N=c2\[nH]c(=O)n(CCN/C(=N\C#N)Oc3ccccc3)c(=O)n2Cc2ccc(Cl)cc2)cc1F [Compound I-0652, 1-(4-chlorobenzyl)-6-(3-fluoro-4-isopropoxyphenylimino)-3-(4-cyanoimino-4-phenoxy-3-azabutyl)-1,3,5-triazinane-2,4-dion]	0.102	
Cc1ccc(Cn2c(=O)n(C[C@H](C)C(=O)O)c(=O)[nH]/c2=N\c2ccc(C3=CCCCC3)cc2)cc1 [Compound I-1111]		IC50 [2]: 0.161 µM
Cc1cc(/N=c2\[nH]c(=O)n(C[C@H](C)C(=O)NCC(F)(F)F)c(=O)n2Cc2ccc(Cl)cc2)ccc1OC(C)C [Compound I-0726]	0.016	
CCCc1ccc(/N=c2\[nH]c(=O)n(C[C@H](C)C(=O)OC)c(=O)n2Cc2ccc(Cl)cc2)cc1OC [Compound I-1306]	0.08	
CCN(c1ccc(/N=c2\[nH]c(=O)n(C[C@H](C)C(=O)O)c(=O)n2Cc2ccc(Cl)cc2)cc1)C(C)C [Compound I-0963]		IC50 [2]: 0.662 µM
COC(=O)CCn1c(=O)[nH]/c(=N\c2cc(C(=O)OC)n(C)c2)n(Cc2ccc(C)cc2)c1=O [Compound I-1836]		IC50 [2]: 0.787 µM
O=c1[nH]/c(=N\c2ccc(Oc3nccs3)cc2)n(Cc2ccc(Cl)cc2)c(=O)n1CC(O)CO (stereo not drawn) [Compound I-2448]		IC50 [1]: 0.011 µM
CCc1nc2ccc(/N=c3\[nH]c(=O)n(CCCCC(=O)O)c(=O)n3Cc3ccc(C)cc3)cc2s1 [Compound I-2159]	0.047	
Cc1ccc(Cn2c(=O)n([C@H](C)[C@H](C)C(=O)O)c(=O)[nH]/c2=N\c2ccc(OCC3CC3)cc2)cc1 [Compound I-1341]	0.036	
Cc1cc(/N=c2\[nH]c(=O)n(CCC(=O)O)c(=O)n2Cc2ccc(Cl)cc2)ccc1CC(C)C [Compound I-1255]	0.048	
Cc1cnc(Oc2ccc(/N=c3\[nH]c(=O)n(CC(=O)O)c(=O)n3Cc3ccc(Cl)cc3)cc2)s1 [Compound I-2624]		IC50 [1]: 0.368 µM
Cc1cc(/N=c2\[nH]c(=O)n(C[C@H](C)C(=O)O)c(=O)n2Cc2ccc(Cl)cc2)ccc1OCC(C)C [Compound I-0835]		IC50 [1]: 0.078 µM
Cc1ccc(Cn2c(=O)n(C[C@H](C)C(=O)O)c(=O)[nH]/c2=N\c2ccc(Cc3ccncc3)cc2)cc1 [Compound I-1262]	0.163	
CCn1c(=O)[nH]/c(=N\c2ccc(Oc3ccc(C(=O)O)o3)cc2)n(Cc2ccc(Cl)cc2)c1=O [Compound I-2152]	0.041	
C[C@@H](Oc1ccc(/N=c2\[nH]c(=O)n(CC(=O)NCC(F)(F)F)c(=O)n2Cc2ccc(Cl)cc2)cc1)C(F)(F)F [Compound I-1961]	0.013	
CC[C@@H](C)Oc1ccc(/N=c2\[nH]c(=O)n(C[C@H](C)C(=O)OC)c(=O)n2Cc2ccc(Cl)cc2)cc1 [Compound I-0727]	0.012	
Cc1ccc(Cn2c(=O)n(C[C@H](C)C(=O)O)c(=O)[nH]/c2=N\c2ccc(OC3CCOCC3)cc2)cc1 [Compound I-1074]		IC50 [2]: 0.086 µM
CCOC(=O)CCn1c(=O)[nH]/c(=N\c2ccc3nc(C(C)C)sc3c2)n(Cc2ccc(C)cc2)c1=O [Compound I-1562]		IC50 [2]: 0.006 µM
NC(=O)c1cc(Oc2ccc(/N=c3\[nH]c(=O)[nH]c(=O)n3Cc3ccc(Cl)cc3)cc2)ccn1 [Compound I-1896]		IC50 [2]: 0.014 µM

Compound	IC50 [3] [µM]	further results
COC(=O)[C@@H](C)Cn1c(=O)[nH]/c(=N\c2ccc(OCC(F)F)cc2)n(Cc2ccc(Cl)cc2)c1=O [Compound I-0846]		IC50 [1]: 0.035 µM
CC1(C)OCC(Cn2c(=O)[nH]/c(=N\c3ccc4nc(C5CC5)sc4c3)n(Cc3ccc(Cl)cc3)c2=O)CO1 [Compound I-1982]	0.009	
COc1ccc(Oc2ccc(/N=c3\[nH]c(=O)n(CC(=O)NCCO)c(=O)n3Cc3ccc(Cl)cc3)cc2)cn1 [Compound I-1858]		IC50 [2]: 0.005 µM
O=C(O)Cn1c(=O)[nH]/c(=N\c2ccc(Oc3cnsn3)cc2)n(Cc2ccc(Cl)cc2)c1=O [Compound I-2643]		IC50 [1]: 0.491 µM
NC(=O)Cn1c(=O)[nH]/c(=N\c2ccc(Oc3ccc(O)nc3)cc2)n(Cc2ccc(Cl)cc2)c1=O [Compound I-1900]		IC50 [2]: 0.016 µM
CCc1nc2ccc(/N=c3\[nH]c(=O)n(CC(C)(C)C(=O)OC)c(=O)n3Cc3ccc(C)cc3)cc2s1 [Compound I-1573]		IC50 [2]: 0.004 µM
CCn1c(=O)[nH]/c(=N\c2ccc(Oc3cc(C(=O)OC)on3)cc2)n(Cc2ccc(Cl)cc2)c1=O [Compound I-1941]	0.005	
C[C@@H](Cn1c(=O)[nH]/c(=N\c2ccc3c(c2)CCO3)n(Cc2ccc(Cl)cc2)c1=O)C(=O)O [Compound I-0773]	0.79	
CCn1c(=O)[nH]/c(=N\c2ccc(Oc3ccc(C#N)cc3)nc2)n(Cc2ccc(Cl)cc2)c1=O [Compound I-2613]		IC50 [1]: 0.137 µM
Cc1cc(/N=c2\[nH]c(=O)n(Cc3cccc(C(=O)O)n3)c(=O)n2Cc2ccc(Cl)cc2)ccc1OC(C)C [Compound I-0801]	0.01	
CCOC(=O)c1nc(Cn2c(=O)[nH]/c(=N\c3ccc(OC(C)C)c(C)c3)n(Cc3ccc(Cl)cc3)c2=O)cs1 [Compound I-0785]	0.011	
CCn1c(=O)[nH]/c(=N\c2ccc(Oc3ccc(C(=O)OC)cn3)cc2)n(C[C@H]2CC[C@H](C)CC2)c1=O [Compound I-2700]		IC50 [1]: 0.353 µM
CCOC(=O)CCCn1c(=O)[nH]/c(=N\c2ccc(Oc3ccncc3)cc2)n(Cc2ccc(C)cc2)c1=O [Compound I-1238]	0.002	
O=c1[nH]/c(=N\c2ccc(OC3CCC3)cc2)n(Cc2ccc(Cl)cc2)c(=O)n1CCCO [Compound I-1918]	0.012	
Cc1ccc(Cn2c(=O)[nH]c(=O)[nH]/c2=N\c2ccc(Oc3ccnc(C(=O)O)c3)cc2)cc1 [Compound I-2140]	0.007	
COCCOc1ccc(/N=c2\[nH]c(=O)n(C[C@H](C)C(=O)OC)c(=O)n2Cc2ccc(Cl)cc2)cc1 [Compound I-0745]	0.125	
COc1cc(/N=c2\[nH]c(=O)n(CCCOC3CCCCO3)c(=O)n2Cc2ccc(Cl)cc2)ccc1OC(C)C (stereo not drawn) [Compound I-2000]	0.003	
O=C(O)CCn1c(=O)[nH]/c(=N\c2ccc(Oc3cccc(F)n3)cc2)n(Cc2ccc(Cl)cc2)c1=O [Compound I-2653]		IC50 [1]: 0.009 µM
CCOC(=O)Cn1c(=O)[nH]/c(=N\c2ccc(Oc3cccc(F)n3)cc2)n(Cc2ccc(Cl)cc2)c1=O [Compound I-2562]		IC50 [1]: 0.004 µM
CC(C)Oc1ccc(/N=c2\[nH]c(=O)n(CCc3n[nH]c(=O)o3)c(=O)n2Cc2ccc(Cl)cc2)cc1F [Compound I-0646]	0.028	
CCCOc1ccc(/N=c2\[nH]c(=O)n([C@H](C)[C@H](C)C(=O)OC)c(=O)n2Cc2ccc(C)cc2)cc1 [Compound I-1313]	0.062	
CCn1c(=O)[nH]/c(=N\c2ccc(Oc3cccc(CC(=O)OC)c3)cc2)n(Cc2ccc(Cl)cc2)c1=O [Compound I-1889]		IC50 [2]: 0.023 µM
